We go through six compounds from patent publication US20100137403A1, “METHOD FOR ENHANCING COGNITION OR INHIBITING COGNITIVE DECLINE” (priority 2008, published 2010).

Series [1] deals with C57BL/6 mice. Particulars: general statement on the SAT test; cited from earlier work.
The subject of series [2] is C57BL/6 mice. In words: Spontaneous alternation task (SAT) test of short-term memory in T-maze. The series is classed as in vivo, mouse. Particulars: for alternation (short-term memory) in healthy mice / alternation (short-term memory) in scopolamine-treated mice: 30 mg/kg i.p. 8 hours prior to the SAT; for alternation (short-term memory) in healthy mice: administered alone; for alternation (short-term memory) in scopolamine-treated mice: scopolamine 1 mg/kg i.p. 30 minutes prior.

Series [3] relates to NF-κB. In words: In vivo bio-photonic imaging of NF-κB luciferase reporter transgenic mice. Also on record: species or system mouse. Particulars: for NF-κB activation in brain (dorsal brain images): Example 3. A general note: A reporter such as luciferase makes a cellular process visible.
The test system of series [4] is NF-κB. The series is described as above. Also on record: species or system mouse. Particulars: for NF-κB activation in the brain: Example 4. How it is done:
The animal used to establish this criterion is preferably a laboratory animal, more preferably a rodent, illustratively a mouse. […] In this technique, a test compound, in this case a Ca^2+ channel blocker, is administered by intravenous (i.v.) injection to transgenic mice having a firefly luciferase reporter driven by one or more NF-κB response elements fused to the reporter (NF-κB::LUC mice). NF-κB expression, nuclear translocation and binding to the response elements in any anatomical or sub-anatomical region of a mouse results in activation of the luciferase reporter in that region. Activated luciferase, in presence of a luciferin substrate, emits light which can be detected and quantitated, and can be used in whole-body imaging to identify specific anatomical or sub-anatomical regions where the luciferase is activated as a result of NF-κB expression. Mice can be anesthetized and imaged at time intervals after administration of the test compound to reveal temporal as well as spatial distribution of NF-κB expression.
In vivo bio-photonic imaging was used to investigate temporal and spatial modulation of physiological processes following acute tiapamil administration to mice. For these studies we employed an NF-κB luciferase transgenic line that was constructed using three NF-κB response elements fused to a firefly luciferase reporter gene. The effect of tiapamil on NF-κB activation was monitored as modulation of detectable luciferase reporter activity, a surrogate for NF-κB activation and nuclear translocation with subsequent binding to the response elements of the reporter. Luciferase activity was detected by its ability to cleave luciferin, a luciferase substrate. Light emitted was detected and analyzed using a highly sensitive CCD imaging system.
For the present study, female NF-κB transgenic mice (5 per treatment) received tiapamil i.v. at 1 or 10 mg/kg in a saline vehicle, or vehicle control. At 2, 4 and 6 hours after administration, the animals were anesthetized and imaged. Visual and quantitative analysis was then performed based on counting photons of light emitted from specific anatomical regions. […] The data are depicted quantitatively in FIG. 1.

Series [5] has as its system NF-κB. In words: Luciferase imaging of 1 mm coronal brain sections from NF-κB transgenic mice. The series is classed as in vivo, mouse. Particulars: 1 and 10 mg/kg, 6-hour time point. From the text: Evaluation of tiapamil in the NF-κB transgenic mouse line was repeated essentially as described in Example 1 and whole-body images were collected at the 6-hour time point. Brains were rapidly removed, chilled in ice-cold saline and sliced into 1 mm coronal sections. The sections were then placed onto glass slides, covered with luciferin solution (Luciferase Assay System substrate, Promega) and subsequently imaged in an IVIS 200 imaging system (Caliper Corp.) to evaluate effect of tiapamil on regional distribution of luciferase activity in the brain.

Series [6] concerns Sprague-Dawley rats. In words: Novel object recognition (NOR) test of long-term memory. It is filed as in vivo, rat. From the text:
The novel object recognition (NOR) paradigm is a rodent model of recognition learning memory retrieval and takes advantage of the spontaneous behavior of rodents to investigate a novel object by comparison with a familiar object (Ennaceur & Delacour (1988) Behav Brain Res. 31:47-59). NOR has been employed extensively to indicate potential cognition-enhancing properties of test compounds.
The objective of this study was to test cognition-enhancing properties of tiapamil using the NOR test of long-term memory in healthy male rats. Adult male Sprague-Dawley rats were used in this study. Animals were placed in the experimental rooms at postnatal day 80 and assigned unique identification numbers (tail marked). Pairs were housed in polycarbonate cages with filter tops and acclimated for 7 days prior to commencing any studies. Animals were maintained in a 12 hour light/dark cycle with room temperature maintained at 22±2° C. with relative humidity maintained at approximately 50%. Food and water were provided ad libitum. All animals were examined, handled, and weighed for two days prior to initiation of the study to assure adequate health and suitability and to minimize non-specific stress associated with manipulation. Each animal was randomly assigned across treatment groups (8 animals per group) and balanced by cage numbers. […]
Tiapamil (10 or 30 mg/kg) was dissolved in saline and administered i.p. 1 or 8 hours prior to training. […] The rats were assessed for cognitive ability in a test apparatus comprising an open-field arena placed in a sound-attenuated room under dimmed lighting. […] All tests were video-scored blind. […] This 10-minute training period, T1, was recorded for subsequent analysis if necessary. […] After 24 hours, each rat was placed again in the test arena for 10 minutes (T2) in presence of a copy of the familiar object and a novel object, and the time spent exploring both objects was recorded. […] The NOR index was measured as the ratio of time spent exploring the novel object over total time spent exploring both objects (familiar+novel), during retention session T2.

The conditions of series [7]: in vivo; cited from earlier work.
Series [8] deals with mice. In words: Lethality of phenylalkylamine Ca2+ channel blockers in mice. It is filed as in vivo. Particulars: 10 mg/kg i.v. From the text: […]. The doses administered for these studies were selected to reflect the previously characterized potency of each of the drugs on blocking L-type Ca^2+ channel function. […].
Series [9] relates to young adult mice. Particulars: cited from earlier work.
Series [10] has as its system mouse cerebellar neurons. Particulars: cited from earlier work.
Series [11] relates to nucleus basalis magnocellularis lesioned rats. Particulars: cited from earlier work.

Entries after “also recorded” stand apart in the source; their conditions may differ. Read-outs that look alike come from different tables or passages of the source.

With `COc1cc2c(cc1OC)C(=O)C(CC1CCN(Cc3ccccc3)CC1)C2` (centres unmarked) [donepezil], the spontaneous alternation result in [1] was “enhanced”.
For `CN1[C@@H]2C[C@@H](OC(=O)[C@H](CO)c3ccccc3)C[C@H]1[C@@H]1O[C@@H]12` [scopolamine], the spontaneous alternation entry in series [1] is “impaired”.
As for `O=C(O)c1cc(/N=N/c2ccc(S(=O)(=O)Nc3ccccn3)cc2)ccc1O` [sulfasalazine], in series [2] (sulfasalazine 3 mg/kg i.p. co-administered with tiapamil 30 mg/kg 8 hours prior to the SAT, healthy mice), the “effect on tiapamil-induced short-term memory enhancement” value is “loss of tiapamil's memory-enhancing effects”. Also, the “measureable NF-κB activity” value in series [3] (Example 5, co-administration of tiapamil and high-dose sulfasalazine) is on record as “increased amount of measureable NF-κB activity”; in series [3] (Example 5, high-dose sulfasalazine alone), “increased amount of measureable NF-κB activity”.
`COc1ccc(CCN(C)CCCC2(c3ccc(OC)c(OC)c3)S(=O)(=O)CCCS2(=O)=O)cc1OC` [tiapamil, N-(3,4-dimethoxyphenethyl)-2-(3,4-dimethoxyphenyl)-N-methyl-m-dithian-2-propylamin-1,1,3,3-tetroxide]: the “alternation (short-term memory) in healthy mice” value in [2] is recorded as “enhances short-term memory”; in [2] (listed as Tiapamil) it was “increased the number of alternation events”. The “alternation (short-term memory) in scopolamine-treated mice” value is reported as “reverses memory deficits” in series [2] and “prevented scopolamine-induced impairment” in series [2] (listed as Tiapamil). Moreover, in [3] (10 mg/kg i.v., 2, 4 and 6 hours), the “NF-κB activation in brain (dorsal brain images)” value is “robust effect”. Further, in [3] (Example 5, i.p., 2, 4, 6 and 8 hours), the “NF-κB signaling in the brain (light emission from head region, dorsal view)” value is given as “enhanced”. For the same compound, the “NF-κB activation in the brain” value in [4] (10 mg/kg i.v., surviving animals, 2, 4, 6 hours, 10 mg/kg) was “robust effect; also recorded: substantially increased”. Further, in series [4] (i.v. 1 or 10 mg/kg), the “NF-κB activation in peripheral anatomical regions” value was “no effect”. For the same compound, in series [4] (i.v. 1 or 10 mg/kg, 4 and 6 hours after treatment), the “NF-κB expression in the head” value is recorded as “dose-dependent increase”. Also, the “luciferase expression in all regions of the brain evaluated” value in series [5] was “dramatic effect”. Besides, the “NOR index 24 hours after training” value was “significantly increased NOR index” in series [6] (10 mg/kg i.p., 1 hour); “significantly increased NOR index” in [6] (10 mg/kg i.p., 8 hours); “not effective” in series [6] (30 mg/kg i.p.). Also, the “efficacy on aspects of ischemic disease” value in [7] is “ineffective”.
On to `COc1ccc(CCN(C)CCCC(C#N)(c2ccc(OC)c(OC)c2)C(C)C)cc1OC` (centres unmarked) [verapamil], for which the “Deaths (n = 5)” value in [8] is recorded as 5. The linear maze acquisition result in series [9] (at the most effective retention dose) was “failed to enhance acquisition”. For the same compound, in [9] (young adult mice), the linear maze retention entry was “enhancement effects at three doses” and the “retention of passive avoidance learning” value was “failed to facilitate retention”. Also, the genetically-inhibited neurite extension in series [10] (mouse cerebellar neurons) is “could restore”. In addition, in series [10] (normal neurons exposed to high concentrations of ethanol), the neuroprotection result is reported as “neuroprotective”. Besides, the “acquisition and performance aspects of active avoidance” value in series [11] (2.5 and 5 mg/kg) is “improved”. The “acquisition and performance aspects of active avoidance” value in series [11] (lower (1 mg/kg) and higher (10 mg/kg) doses) is given as “ineffective”.
Consider gallopamil, for which the “NF-κB activation in brain (dorsal brain images)” value in [3] (0.5 mg/kg i.v., 2- and 4-hour time points) is recorded as “marginal effect”; in series [3] (0.5 mg/kg i.v., 6-hour time point), “more dramatic effect”. The “NF-κB activation in the brain” value is listed as “induced NF-κB activation; also recorded: increased NF-κB expression in the brain” in [4] (1 mg/kg i.v., 3 surviving animals, 1 mg/kg) and “minor to no change” in series [4] (10 mg/kg i.v., surviving animals, 2, 4, 6 hours). The “efficacy on aspects of ischemic disease” value in [7] is “ineffective”.
